The record followed here is patent publication US20230365582A1, “NOVEL COMPOUNDS HAVING INHIBITORY ACTIVITY ON PROSTAGLANDIN E2 RECEPTOR AND USES THEREOF” (KANAPH THERAPEUTICS INC., priority 2020, published 2023).

One test has as its target T1, hEP2 (Homo sapiens, UniProt P43116).
T1 construct: expressed in transfected cells; host or cells: HEK293
Nature of the test: hEP2 cAMP assay. To be noted: HEK293 cells overexpressing hEP2; PGE2 agonist 400 pM; graded per Table 21; read-out: IC50 (nM) EP2 cAMP. The test is classed as cell-based. The protocol: HEK293 cells overexpressing hEP2 were cultured in growth medium (GM: MEM (Gibco™, 11095080)/10% HI FBS (Gibco™, 10082147)/1% penicillin/streptomycin). Before the experiment, the growth medium was removed, and starvation medium (HBSS (Gibco™, 14025076)/10% GM) was added. Thereafter, the cells were incubated for 4 hours. The HEK293 cells harboring hEP2 were detached from the culture dish with a non-enzymatic cell dissociation buffer (Gibco™, 15040066). The cells were resuspended in assay buffer (AB: HBSS, 0.1% BSA stabilizer, 0.5 mM IBMX, 5 mM HEPES).
(§1) 1,000 cells in 5 μL of AB were seeded per well in a 384 well plate (Corning™, 3570), and stock solutions of test compounds were prepared at a concentration of 1 mM in DMSO and serially diluted in DMSO to the concentration required for the inhibition dose response curve (test concentration range of 10 μM-0.001 nM). PGE2 (Sigma, P0409, stock solution: 1 μM) was used as an agonist at a final concentration of 400 pM corresponding to EC50-80. 2.5 μL of the diluted compound and 2.5 μL of PGE2 (400 pM final concentration) were transferred to the assay plate, and then the plate was incubated at room temperature for 12 minutes.
(§2) 5 μL of each donor (Eu-cAMP tracer) and acceptor (ULight-anti-cAMP) was added, and the plate was incubated in the dark for 1 hour at room temperature, and then a Varioskan LUX multimode microplate reader was used to obtain the results (excitation: 334 nm, emission: 615 and 665 nm). The resulting FRET fluorescence value (665 nm/615 nm*10000) was converted and then calculated as a percentage of cAMP relative to the DMSO control value. IC50 values and curves were generated with GraphPad Prism software using log (inhibitor) versus response-variable slopes (4 parameters), and the median of multiple experiments was taken as the experiment result.
For orientation: Cyclic AMP is a second messenger, typically raised through Gs and lowered through Gi signalling.

The target of the next test is T2, hEP4 (Homo sapiens, UniProt P35408).
T2 construct: expressed in transfected cells; host or cells: HEK293
Briefly: hEP4 cAMP assay. The test is classed as cell-based. To be noted: HEK293 cells overexpressing hEP4; PGE2 agonist 20 nM; graded per Table 21; read-out: IC50 (nM) EP4 cAMP. The protocol:
HEK293 cells overexpressing hEP4 were cultured in growth medium (GM: MEM (Gibco™, 11095080)/10% HI FBS (Gibco™, 10082147)/1% penicillin/streptomycin). Before the experiment, the growth medium was removed, and starvation medium (HBSS (Gibco™ 14025076)/10% GM) was added. Thereafter, the cells were incubated for 4 hours. HEK293 cells harboring hEP4 were detached from the culture dish with a non-enzymatic cell dissociation buffer (Gibco™, 15040066). The cells were resuspended in assay buffer (AB: HBSS, 0.1% BSA stabilizer, 0.5 mM IBMX, 5 mM HEPES).
as §1, with “plate (Corning®,” for “plate (Corning™,”, “solution: 100” for “solution: 1”, “of 20 nM” for “of 400 pM”, “PGE2 (20 nM” for “PGE2 (400 pM”, “for 18.5” for “for 12”
as §2, with “compared” for “relative”, “slope” for “slopes”

T2 sequence (P35408 whole entry): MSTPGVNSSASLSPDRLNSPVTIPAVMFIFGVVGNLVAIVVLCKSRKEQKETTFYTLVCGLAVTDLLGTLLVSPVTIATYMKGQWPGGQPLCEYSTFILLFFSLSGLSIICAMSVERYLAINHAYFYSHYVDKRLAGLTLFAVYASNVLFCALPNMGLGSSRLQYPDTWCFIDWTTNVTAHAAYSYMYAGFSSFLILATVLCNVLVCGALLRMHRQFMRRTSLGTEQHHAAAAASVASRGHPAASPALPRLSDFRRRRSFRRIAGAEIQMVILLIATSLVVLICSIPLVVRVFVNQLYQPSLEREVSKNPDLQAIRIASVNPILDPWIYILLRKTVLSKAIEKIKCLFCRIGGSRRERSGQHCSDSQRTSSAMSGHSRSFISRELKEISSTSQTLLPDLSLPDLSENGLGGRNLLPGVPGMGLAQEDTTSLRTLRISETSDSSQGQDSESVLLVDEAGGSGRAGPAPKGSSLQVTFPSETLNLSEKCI
T1 sequence (P43116 whole entry): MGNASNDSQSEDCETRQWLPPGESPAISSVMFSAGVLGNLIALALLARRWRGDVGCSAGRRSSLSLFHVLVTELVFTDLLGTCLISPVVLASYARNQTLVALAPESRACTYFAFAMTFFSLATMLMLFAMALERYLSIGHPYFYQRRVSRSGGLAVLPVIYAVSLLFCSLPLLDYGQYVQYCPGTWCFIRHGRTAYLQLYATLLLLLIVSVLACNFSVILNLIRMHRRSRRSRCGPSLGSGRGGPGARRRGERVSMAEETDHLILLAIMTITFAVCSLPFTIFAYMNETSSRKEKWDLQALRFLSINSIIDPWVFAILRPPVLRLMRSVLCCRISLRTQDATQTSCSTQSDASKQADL

A word on the IC50: it is the concentration that gives 50% inhibition. On to `O=C(NC1CC2(C1)CC(C(=O)O)C2)c1c(Br)sc(Br)c1Cc1ccc(-c2ccccc2)cc1` (stereo not drawn) [Example 16, 6-(4-([1,1′-biphenyl]-4-ylmethyl)-2,5-dibromothiophene-3-carboxamido)spiro[3.3]heptane-2-carboxylic acid], for which the half-maximal inhibitory concentration (IC50) on hEP2 is greater than 10000 nM; on hEP4, 500 to 5000 nM.

On to `O=C(NC1CC2(C1)CC(C(=O)O)C2)c1c(Cl)sc(Cl)c1Cc1ccc(-c2ccccc2)cc1` (stereo not drawn) [Example 17, 6-(4-([1,1′-biphenyl]-4-ylmethyl)-2,5-dichlorothiophene-3-carboxamido)spiro[3.3]heptane-2-carboxylic acid], for which the IC50 on hEP2 is 5000 to 10000 nM; at hEP4 it was less than 500 nM.

With `O=C(NC1CC2(C1)CC(C(=O)O)C2)c1sccc1Cc1ccc(-c2ccccc2)cc1` (stereo not drawn) [Example 18, 6-(3-([1,1′-biphenyl]-4-ylmethyl)thiophene-2-carboxamido)spiro[3.3]heptane-2-carboxylic acid], the IC50 on hEP2 and at hEP4 was 500 to 5000 nM in each case.

Consider `COc1cc(F)cc(-c2ccc(Cc3ccsc3C(=O)NC3CC4(C3)CC(C(=O)O)C4)cc2)c1` (stereo not drawn) [Example 19, 6-(3-((3′-fluoro-5′-methoxy-[1,1′-biphenyl]-4-yl)methyl)thiophene-2-carboxamido) spiro[3.3]heptane-2-carboxylic acid], for which the IC50 is 500 to 5000 nM at hEP2 and less than 500 nM on hEP4.

In the case of `Cc1scc(C(=O)NC2CC3(C2)CC(C(=O)O)C3)c1Cc1ccc(-c2ccccc2)cc1` (stereo not drawn) [Example 20, 6-(4-([1,1′-biphenyl]-4-ylmethyl)-5-methylthiophene-3-carboxamido)spiro[3.3]heptane-2-carboxylic acid], the figures for the 50% inhibitory concentration (IC50) at hEP2 and on hEP4 were 500 to 5000 nM and less than 500 nM, respectively.

Take `O=C(NC1CC2(C1)CC(C(=O)O)C2)c1csc(-c2ccccc2)c1Cc1ccc(-c2ccccc2)cc1` (stereo not drawn) [Example 21, 6-(4-([1,1′-biphenyl]-4-ylmethyl)-5-phenylthiophene-3-carboxamido)spiro[3.3] heptane-2-carboxylic acid]: the 50% inhibitory concentration (IC50) on hEP2 and on hEP4 was greater than 10000 nM each time.

In the case of `O=C(NC1CC2(C1)CC(C(=O)O)C2)c1csc(C2CC2)c1Cc1ccc(-c2ccccc2)cc1` (stereo not drawn) [Example 22], the concentration for half-maximal inhibition (IC50) at hEP2 and on hEP4 was 500 to 5000 nM throughout.

`Cc1sc(C)c(C(=O)NC2CC3(C2)CC(C(=O)O)C3)c1Cc1ccc(Cl)cc1` (stereo not drawn) [Example 23, 6-(4-(4-chlorobenzyl)-2,5-dimethylthiophene-3-carboxamido)spiro[3.3]heptane-2-carboxylic acid]: the concentration for half-maximal inhibition (IC50) at hEP2 and at hEP4 was greater than 10000 nM in each case.

Turning to `COc1ccccc1-c1ccc(Cc2c(C)sc(C)c2C(=O)NC2CC3(C2)CC(C(=O)O)C3)cc1` (stereo not drawn) [Example 24, 6-(4-((2′-methoxy-[1,1′-biphenyl]-4-yl)methyl)-2,5-dimethylthiophene-3-carboxamido)spiro[3.3] heptane-2-carboxylic acid], the concentration for half-maximal inhibition (IC50) at hEP2 is greater than 10000 nM; at hEP4 it was 500 to 5000 nM.

On to `Cc1sc(C)c(C(=O)NC2CC3(C2)CC(C(=O)O)C3)c1Cc1ccc(-c2ccccc2O)cc1` (stereo not drawn) [Example 25, 6-(4-((2′-hydroxy-[1,1′-biphenyl]-4-yl)methyl)-2,5-dimethylthiophene-3-carboxamido)spiro[3.3] heptane-2-carboxylic acid], for which the concentration for half-maximal inhibition (IC50) on hEP2 was greater than 10000 nM; at hEP4, 5000 to 10000 nM.

Regarding `Cc1sc(C)c(C(=O)NC2CC3(C2)CC(C(=O)O)C3)c1Cc1ccc(-c2ccncc2)cc1` (stereo not drawn) [Example 26, 6-(2,5-dimethyl-4-(4-(pyridin-4-yl)benzyl)thiophene-3-carboxamido)spiro[3.3]heptane-2-carboxylic acid], the IC50 on hEP2 is greater than 10000 nM; on hEP4, 500 to 5000 nM.

On to `Cc1sc(C)c(C(=O)NC2CC3(C2)CC(C(=O)O)C3)c1Cc1ccc(-c2cccnc2)cc1` (stereo not drawn) [Example 27, 6-(2,5-dimethyl-4-(4-(pyridin-3-yl)benzyl)thiophene-3-carboxamido)spiro[3.3]heptane-2-carboxylic acid], for which the IC50 on hEP2 was greater than 10000 nM; at hEP4 it was 500 to 5000 nM.

As for `Cc1ccc(-c2ccc(Cc3c(C)sc(C)c3C(=O)NC3CC4(C3)CC(C(=O)O)C4)cc2)cc1C` (stereo not drawn) [Example 28, 6-(4-((3′,4′-dimethyl-[1,1′-biphenyl]-4-yl)methyl)-2,5-dimethylthiophene-3-carboxamido)spiro[3.3]heptane-2-carboxylic acid], the IC50 is 500 to 5000 nM at hEP2 and less than 500 nM at hEP4.

With `COc1cccc(-c2ccc(Cc3c(C)sc(C)c3C(=O)NC3CC4(C3)CC(C(=O)O)C4)cc2)c1` (stereo not drawn) [Example 29, 6-(4-((3′-methoxy-[1,1′-biphenyl]-4-yl)methyl)-2,5-dimethylthiophene-3-carboxamido)spiro[3.3]heptane-2-carboxylic acid], the IC50 is 500 to 5000 nM at hEP2 and less than 500 nM on hEP4.

For `Cc1sc(C)c(C(=O)NC2CC3(C2)CC(C(=O)O)C3)c1Cc1ccc(-c2cccc(C#N)c2)cc1` (stereo not drawn) [Example 30], the results for the IC50 at hEP2 and at hEP4 were greater than 10000 nM and less than 500 nM, respectively.

Take `CCc1ccc(-c2ccc(Cc3c(C)sc(C)c3C(=O)NC3CC4(C3)CC(C(=O)O)C4)cc2)cc1` (stereo not drawn) [Example 31, 6-(4-((4′-ethyl-[1,1′-biphenyl]-4-yl)methyl)-2,5-dimethylthiophene-3-carboxamido)spiro[3.3]heptane-2-carboxylic acid]: the IC50 on hEP2 is 5000 to 10000 nM; at hEP4 it was less than 500 nM.

Regarding `Cc1sc(C)c(C(=O)NC2CC3(C2)CC(C(=O)O)C3)c1Cc1ccc(C2=CCCCC2)cc1` (stereo not drawn) [Example 32, 6-(2,5-dimethyl-4-((2′,3′,4′,5′_ tetrahydro-[1,1′-biphenyl]-4-yl)methyl)thiophene-3-carboxamido)spiro[3.3]heptane-2-carboxylic acid], the 50% inhibitory concentration (IC50) at hEP2 was greater than 10000 nM; at hEP4, 500 to 5000 nM.

With `Cc1sc(C)c(C(=O)NC2CC3(C2)CC(C(=O)O)C3)c1Cc1ccc(-c2ccoc2)cc1` (stereo not drawn) [Example 33, 6-(4-(4-(furan-3-yl)benzyl)-2,5-dimethylthiophene-3-carboxamido)spiro[3.3]heptane-2-carboxylic acid], the half-maximal inhibitory concentration (IC50) was 500 to 5000 nM at hEP2 and less than 500 nM on hEP4.

Consider `COc1cc(F)cc(-c2ccc(Cc3c(C)sc(C)c3C(=O)NC3CC4(C3)CC(C(=O)O)C4)cc2)c1` (stereo not drawn) [Example 34, 6-(4-((3′-fluoro-5′-methoxy-[1,1′-biphenyl]-4-yl)methyl)-2,5-dimethylthiophene-3-carboxamido)spiro[3.3]heptane-2-carboxylic acid], for which the IC50 at hEP2 is 500 to 5000 nM; at hEP4, less than 500 nM.

As to `Cc1sc(C)c(C(=O)NC2CC3(C2)CC(C(=O)O)C3)c1Cc1ccc(-c2ccc(S(C)(=O)=O)cc2)cc1` (stereo not drawn) [Example 35, 6-(2,5-dimethyl-4-((4′-(methylsulfonyl)-[1,1′-biphenyl]-4-yl)methyl)thiophene-3-carboxamido)spiro[3.3]heptane-2-carboxylic acid], the IC50 at hEP2 was greater than 10000 nM; on hEP4, 5000 to 10000 nM.

In the case of `Cc1sc(C)c(C(=O)NC2CC3(C2)CC(C(=O)O)C3)c1Cc1ccc(-c2ccc(C(=O)OC(C)(C)C)cc2)cc1` (stereo not drawn) [Example 36, 6-(4-((4′-(tert-butoxycarbonyl)-[1,1′-biphenyl]-4-yl)methyl)-2,5-dimethylthiophene-3-carboxamido)spiro[3.3]heptane-2-carboxylic acid], the IC50 is 5000 to 10000 nM on hEP2 and less than 500 nM at hEP4.
